From patent US20050054006A1, “Combinatorial fluorescent library based on the styryl scaffold” (New York University, priority 2003, published 2005)

Assay: Fluorescence excitation/emission of the styryl dye library compounds
Format: physicochemical
Details: EX/EM peak no. 1

Compound | EM(nm) | EX(nm)
C[n+]1ccc(C=Cc2ccc(Br)cc2)cc1.[I-] [Compound A5] | 540 | 375 nm
COc1cc(C=Cc2cc[n+](C)cc2)cc(OC)c1OC.[I-] [Compound A13] | 550 | 390 nm
COc1ccc(C=Cc2cc[n+](C)cc2)cc1O.[I-] [Compound A15] | 510 | –
C[n+]1ccc(C=Cc2ccc(O)cc2)cc1.[I-] [Compound A16] | 510 | 390-420 nm
CC(=O)Nc1ccc(C=Cc2cc[n+](C)cc2)cc1.[I-] [Compound A18] | 610 | 420 nm
C[n+]1ccc(C=Cc2ccc([N+](=O)[O-])cc2)cc1.[I-] [Compound A22] | 540 | 400 nm
C[n+]1ccc(C=Cc2ccccc2F)cc1.[I-] [Compound A29] | 560 | 400-420 nm
C[n+]1ccc(C=Cc2ccc(F)cc2)cc1.[I-] [Compound A30] | 590 | 420-440 nm
C[n+]1ccc(C=Cc2ccc3ccccc3c2)cc1.[I-] [Compound A33] | 600 | 360-420 nm
C[n+]1ccc(C=CC=Cc2ccccc2[N+](=O)[O-])cc1.[I-] [Compound A36] | 700 | 430 nm
CN(C)c1ccc(C=CC=Cc2cc[n+](C)cc2)cc1.[I-] [Compound A37] | 580 | 460-490 nm
COc1cc(OC)c(OC)cc1C=Cc1cc[n+](C)cc1.[I-] [Compound A38] | 540 | 410 nm
C[n+]1ccc(C=Cc2ccc3c(c2)OCO3)cc1.[I-] [Compound A39] | 540 | 430 nm
Brc1ccc(C=Cc2cc[n+](C34CC5CC(CC(C5)C3)C4)cc2)cc1.[Br-] [Compound B5] | 570 | 385 nm
COc1ccccc1C=Cc1cc[n+](C23CC4CC(CC(C4)C2)C3)cc1.[Br-] [Compound B9] | 500 | 390 nm
C(=Cc1ccc(OCc2ccccc2)c(OCc2ccccc2)c1)c1cc[n+](C23CC4CC(CC(C4)C2)C3)cc1.[Br-] [Compound B12] | 530 | 340-444 nm
COc1ccc(C=Cc2cc[n+](C34CC5CC(CC(C5)C3)C4)cc2)c2ccccc12.[Br-] [Compound B14] | 550 | 360-450 nm
CC(=O)Nc1ccc(C=Cc2cc[n+](C34CC5CC(CC(C5)C3)C4)cc2)cc1.[Br-] [Compound B18] | 580 | 420 nm
CN(C)c1ccc(C=Cc2cc[n+](C34CC5CC(CC(C5)C3)C4)cc2)cc1.[Br-] [Compound B19] | 610 | 380-540 nm
Fc1ccccc1C=Cc1cc[n+](C23CC4CC(CC(C4)C2)C3)cc1.[Br-] [Compound B29] | 560 | 400-420 nm
Fc1ccc(C=Cc2cc[n+](C34CC5CC(CC(C5)C3)C4)cc2)cc1.[Br-] [Compound B30] | 590 | –
C(=Cc1c2ccccc2cc2ccccc12)c1cc[n+](C23CC4CC(CC(C4)C2)C3)cc1.[Br-] [Compound B34] | 610 | 460 nm
COc1cc(C=Cc2cccc[n+]2C)cc(OC)c1OC.[I-] [Compound C13] | 540 | 380 nm

Compound | EM(nm) | EX(nm)
COc1ccc(C=Cc2cccc[n+]2C)c2ccccc12.[I-] [Compound C14] | 530 | 390 nm
COc1ccc(C=Cc2cccc[n+]2C)cc1O.[I-] [Compound C15] | 500 | 390 nm
CN(C)c1ccc(C=Cc2cccc[n+]2C)c2ccccc12.[I-] [Compound C27] | 620 | 450 nm
C[n+]1ccccc1C=Cc1cccc2ccccc12.[I-] [Compound C32] | 550 | 390 nm
CN(C)c1ccc(C=CC=Cc2cccc[n+]2C)cc1.[I-] [Compound C37] | 680 | 520 nm
COc1cc(OC)c(OC)cc1C=Cc1cccc[n+]1C.[I-] [Compound C38] | 580 | 420 nm
C[n+]1ccccc1C=Cc1ccc2c(c1)OCO2.[I-] [Compound C39] | 520 | 340 nm
C[n+]1ccccc1C=Cc1ccccn1.[I-] [Compound C40] | 610 | 390 nm
CCc1ccc(C=Cc2ccc(OCc3ccccc3)c(OCc3ccccc3)c2)[n+](C)c1.[I-] [Compound E12] | 510 | 400 nm
CCc1ccc(C=Cc2cc(OC)c(OC)c(OC)c2)[n+](C)c1.[I-] [Compound E13] | 540 | 380 nm
CCc1ccc(/C=C/c2c[nH]c3ccccc23)[n+](C)c1.[I-] [Compound E24] | 510 | 430 nm
CCc1ccc(/C=C/c2ccc(N(C)C)c3ccccc23)[n+](C)c1.[I-] [Compound E27] | 620 | 430 nm
CCc1ccc(C=Cc2cccc3ccccc23)[n+](C)c1.[I-] [Compound E32] | 560 | 420 nm
CCc1ccc(C=Cc2cc(OC)c(OC)cc2OC)[n+](C)c1.[I-] [Compound E38] | 560 | 430 nm
CCc1ccc(/C=C/c2ccc3c(c2)OCO3)[n+](C)c1.[I-] [Compound E39] | 500 | 390-420 (broad) nm
CCc1ccc(C=Cc2ccccn2)[n+](C)c1.[I-] [Compound E40] | 610 | 390 nm
COc1ccccc1C=Cc1cc[n+](C)c(Br)c1.[I-] [Compound F9] | 520 | 400 nm
COc1ccc(/C=C/c2cc[n+](C)c(Br)c2)cc1.[I-] [Compound F10] | 520 | 460 nm
C[n+]1ccc(C=Cc2ccc(O)cc2)cc1Br.[I-] [Compound F16] | 510 | 410 nm
CN(C)c1ccc(C=Cc2cc[n+](C)c(Br)c2)cc1.[I-] [Compound F19] | 610 | 440(broad) nm
CN(C)c1ccc(C=Cc2cc[n+](C)c(Br)c2)c2ccccc12.[I-] [Compound F27] | 640 | 460 nm
C[n+]1ccc(C=Cc2cccc3ccccc23)cc1Br.[I-] [Compound F32] | 530 | 410 nm
COc1cc(OC)c(OC)cc1C=Cc1cc[n+](C)c(Br)c1.[I-] [Compound F38] | 540 | 460 nm

Compound | EM(nm) | EX(nm)
C[n+]1ccc(/C=C/c2ccc3c(c2)OCO3)cc1Br.[I-] [Compound F39] | 540 | 400-420 nm
C[n+]1ccc(C=Cc2ccccn2)cc1Br.[I-] [Compound F40] | 640 | 540 nm
COc1ccc(C=Cc2cc[n+](C)c3ccccc23)cc1OC.[I-] [Compound G11] | 600 | 420-480 nm
COc1cc(C=Cc2cc[n+](C)c3ccccc23)cc(OC)c1OC.[I-] [Compound G13] | 620 | 420 nm
COc1ccc(C=Cc2cc[n+](C)c3ccccc23)cc1O.[I-] [Compound G15] | 560 | 420-460 nm
C[n+]1ccc(/C=C/c2ccc(O)cc2)c2ccccc21.[I-] [Compound G16] | 560 | 430 nm
C[n+]1ccc(/C=C/c2ccc3c(c2)Cc2ccccc2-3)c2ccccc21.[I-] [Compound G28] | 620 | 450 nm
C[n+]1ccc(C=Cc2ccccc2F)c2ccccc21.[I-] [Compound G29] | 560 | 450 nm
CN(C)c1ccc(/C=C/C=C/c2cc[n+](C)c3ccccc23)cc1.[I-] [Compound G37] | 670 | 530 nm
C[n+]1ccc(/C=C/c2ccc3c(c2)OCO3)c2ccccc21.[I-] [Compound G39] | 590 | 430 nm
C[n+]1ccc(C=Cc2ccc3ccc4cccc5ccc2c3c45)c2ccccc21.[I-] [Compound G41] | 660 | 500 nm
C[n+]1c(/C=C/c2ccccc2)ccc2ccccc21.[I-] [Compound H2] | 640 | 480(weak) nm
C[n+]1c(C=Cc2cccc(Br)c2)ccc2ccccc21.[I-] [Compound H4] | 640 | 530 nm
C[n+]1c(C=Cc2ccc(Br)cc2)ccc2ccccc21.[I-] [Compound H5] | 640 | 480 nm
C[n+]1c(C=Cc2ccc(Cl)cc2)ccc2ccccc21.[I-] [Compound H6] | 640 | 530 nm
Cc1ccccc1C=Cc1ccc2ccccc2[n+]1C.[I-] [Compound H7] | 650 | 420 nm
Cc1ccc(/C=C/c2ccc3ccccc3[n+]2C)cc1.[I-] [Compound H8] | 650 | 530 nm
COc1ccc(C=Cc2ccc3ccccc3[n+]2C)cc1OC.[I-] [Compound H11] | 570 | 460 nm
COc1cc(C=Cc2ccc3ccccc3[n+]2C)cc(OC)c1OC.[I-] [Compound H13] | 590 | 420 nm
C[n+]1c(C=Cc2c3ccccc3cc3ccccc23)ccc2ccccc21.[I-] [Compound H34] | 650 | 460 nm
C[n+]1c(C=Cc2ccc3ccc4cccc5ccc2c3c45)ccc2ccccc21.[I-] [Compound H41] | 640 | 480 nm
COc1ccc2c(ccc(C=Cc3ccc(Br)cc3)[n+]2C)c1.[I-] [Compound I5] | 650 | 420 nm
COc1ccc2c(ccc(C=Cc3ccc(OC)c(OC)c3)[n+]2C)c1.[I-] [Compound I11] | 560 | 430 nm
